Experimental data taken from US6734184B1, “Arylpiperazines and their use as metalloproteinase inhibiting agents (MMP)” (AstraZeneca AB, priority 1998, dated 2004).

| melting point | SMILES |
| --- | --- |
| 130 to 140 °C | O=CN(O)C(CCc1cccnc1)CS(=O)(=O)N1CCC(Oc2ccc(Cl)cn2)CC1 (stereo not drawn) [Example 14, N-{1-[({4-[(5-Chloropyridin-2-yl)oxy]piperidino}sulfonyl)methyl]-3-pyridin-3-ylpropyl}-N-hydroxyformamide] |
| 155 to 157 °C | O=CN(O)C(CCc1ccccc1)CS(=O)(=O)N1CCN(c2cc(Cl)ncn2)CC1 (stereo not drawn) [N-[1-({[4-(6-chloropyrimidin-4-yl)piperazino]sulphonyl}methyl)-3-phenylpropyl]-N-hydroxyformamide] |
| 118 to 120 °C | O=CN(O)C(COCc1ccccc1)CS(=O)(=O)N1CCN(c2cc(Cl)ncn2)CC1 (stereo not drawn) [N-[2-(benyloxy)-1-({[4(6-chloropyrimidin-4-yl)piperazino]sulphonyl}methyl)ethyl]-N-hydroxyformamide] |
